Experimental data as given in article doi:10.1101/2025.01.28.635346v1 (bioRxiv, 2025).
pIC50: −log10 of the molar value. Bridge positions count the residues as written; N and C are the ends. Peptide text beside a SMILES is read from it.

Legend:
[1] = system: αvβ6/8 vs other RGD-integrins; assay: Selectivity and potency gain for αvβ6/8, worked out from integrin IC50 values; assay type: binding, human; conditions: for improvement in potency (IC50) for αvβ6/8 relative to parent lassotide: 24 and 30 vs 14, 35 vs 28, 36 vs 30, 47 vs 36
integrin αvβ3 = integrin αvβ3 (Homo sapiens, UniProt P05106+P06756); assay: ELISA competition assay, integrin αvβ3; assay type: binding
integrin αvβ8 = integrin αvβ8 (Homo sapiens, UniProt P06756+P26012); assay: ELISA competition assay, integrin αvβ8 binding to LAP
integrin αvβ6 [2] = target: T1, integrin αvβ6 (Homo sapiens, UniProt P06756+P18564); assay: ELISA competition assay, integrin αvβ6 binding to LAP
integrin αvβ6 [3] = target: T1, integrin αvβ6; assay: AlphaLISA competition assay vs LAP, biotinylated αvβ6; assay type: binding
Mouse αvβ6 = target: T2, Mouse αvβ6 (Mus musculus, UniProt P43406+Q9Z0T9); assay: ELISA competition assay, mouse integrin αvβ6; assay type: binding
T2 sequence (P43406 31-988 limits assumed): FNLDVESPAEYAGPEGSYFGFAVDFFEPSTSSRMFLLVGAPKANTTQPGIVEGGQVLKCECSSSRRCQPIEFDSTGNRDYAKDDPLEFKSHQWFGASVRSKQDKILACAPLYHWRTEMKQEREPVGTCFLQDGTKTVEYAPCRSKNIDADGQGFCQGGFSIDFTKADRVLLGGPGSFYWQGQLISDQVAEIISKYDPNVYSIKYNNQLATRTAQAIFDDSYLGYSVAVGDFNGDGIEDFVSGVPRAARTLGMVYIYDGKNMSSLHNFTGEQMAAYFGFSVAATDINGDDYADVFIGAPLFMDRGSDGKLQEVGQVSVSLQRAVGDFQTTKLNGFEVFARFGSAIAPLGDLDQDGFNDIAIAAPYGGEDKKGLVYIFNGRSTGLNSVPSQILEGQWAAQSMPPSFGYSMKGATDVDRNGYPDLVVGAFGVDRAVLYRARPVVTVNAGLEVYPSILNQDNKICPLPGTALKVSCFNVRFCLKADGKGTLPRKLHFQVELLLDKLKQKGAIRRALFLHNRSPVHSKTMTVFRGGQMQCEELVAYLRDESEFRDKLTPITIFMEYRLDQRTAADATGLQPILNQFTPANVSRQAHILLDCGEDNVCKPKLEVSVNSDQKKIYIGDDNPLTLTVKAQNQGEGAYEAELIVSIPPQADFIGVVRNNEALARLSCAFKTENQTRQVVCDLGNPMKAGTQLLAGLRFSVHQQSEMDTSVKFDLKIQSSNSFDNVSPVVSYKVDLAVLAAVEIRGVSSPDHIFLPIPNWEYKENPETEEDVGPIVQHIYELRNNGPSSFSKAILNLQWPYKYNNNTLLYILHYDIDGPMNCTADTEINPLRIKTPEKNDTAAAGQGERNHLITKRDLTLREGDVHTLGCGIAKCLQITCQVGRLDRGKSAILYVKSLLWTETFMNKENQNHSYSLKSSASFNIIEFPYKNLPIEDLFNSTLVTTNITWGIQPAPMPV
T2 sequence (Q9Z0T9 22-707 limits assumed): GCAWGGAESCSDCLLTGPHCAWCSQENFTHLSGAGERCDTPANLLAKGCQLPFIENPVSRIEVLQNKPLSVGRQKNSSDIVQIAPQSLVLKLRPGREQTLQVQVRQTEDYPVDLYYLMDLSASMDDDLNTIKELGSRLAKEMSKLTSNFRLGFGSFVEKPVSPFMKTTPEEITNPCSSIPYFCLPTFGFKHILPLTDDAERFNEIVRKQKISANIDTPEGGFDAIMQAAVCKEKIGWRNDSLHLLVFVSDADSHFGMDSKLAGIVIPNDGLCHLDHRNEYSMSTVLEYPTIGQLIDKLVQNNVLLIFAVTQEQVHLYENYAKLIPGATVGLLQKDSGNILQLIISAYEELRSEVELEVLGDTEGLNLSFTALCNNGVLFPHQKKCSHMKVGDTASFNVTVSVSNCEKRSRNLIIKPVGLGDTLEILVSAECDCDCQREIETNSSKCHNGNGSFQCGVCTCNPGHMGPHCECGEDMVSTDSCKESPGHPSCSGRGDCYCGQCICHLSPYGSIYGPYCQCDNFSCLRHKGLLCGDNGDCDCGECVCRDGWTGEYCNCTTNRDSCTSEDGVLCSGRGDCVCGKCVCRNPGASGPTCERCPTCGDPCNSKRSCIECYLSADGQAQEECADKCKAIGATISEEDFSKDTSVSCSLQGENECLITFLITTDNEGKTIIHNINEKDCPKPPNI

integrin α5β1 = integrin α5β1 (Homo sapiens, UniProt P05556+P08648); assay: ELISA competition assay, integrin α5β1; assay type: binding
integrin αIIbβ3 = target: T3, integrin αIIbβ3 (Homo sapiens, UniProt P05106+P08514); assay: ELISA competition assay, integrin αIIbβ3; assay type: binding
T3 sequence (P08514 32-993 limits assumed): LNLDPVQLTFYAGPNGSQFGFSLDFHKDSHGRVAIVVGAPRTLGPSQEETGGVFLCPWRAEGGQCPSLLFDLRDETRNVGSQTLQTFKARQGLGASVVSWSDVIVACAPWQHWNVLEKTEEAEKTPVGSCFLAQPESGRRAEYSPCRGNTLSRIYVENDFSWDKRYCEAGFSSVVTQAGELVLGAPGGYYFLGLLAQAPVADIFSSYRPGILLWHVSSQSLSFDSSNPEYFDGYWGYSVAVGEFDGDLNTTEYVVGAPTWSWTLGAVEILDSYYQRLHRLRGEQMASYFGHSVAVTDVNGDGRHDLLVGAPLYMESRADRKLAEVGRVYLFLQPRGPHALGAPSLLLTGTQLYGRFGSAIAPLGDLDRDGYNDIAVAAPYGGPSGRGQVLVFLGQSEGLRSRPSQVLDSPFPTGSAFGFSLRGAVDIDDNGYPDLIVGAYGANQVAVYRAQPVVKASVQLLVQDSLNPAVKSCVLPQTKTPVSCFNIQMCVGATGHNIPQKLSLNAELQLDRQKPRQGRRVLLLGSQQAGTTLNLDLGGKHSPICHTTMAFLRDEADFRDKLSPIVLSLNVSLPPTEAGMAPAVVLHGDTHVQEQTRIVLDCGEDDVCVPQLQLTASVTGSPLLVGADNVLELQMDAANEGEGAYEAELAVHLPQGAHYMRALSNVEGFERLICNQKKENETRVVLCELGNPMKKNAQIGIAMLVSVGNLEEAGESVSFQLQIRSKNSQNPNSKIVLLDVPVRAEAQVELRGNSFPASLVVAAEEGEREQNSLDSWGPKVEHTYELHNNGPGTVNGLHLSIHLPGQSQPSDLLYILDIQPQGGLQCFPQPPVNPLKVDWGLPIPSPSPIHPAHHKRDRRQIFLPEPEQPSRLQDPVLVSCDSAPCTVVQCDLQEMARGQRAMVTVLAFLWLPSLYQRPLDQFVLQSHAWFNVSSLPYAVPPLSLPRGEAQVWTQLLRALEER
T3 sequence (P05106 27-718 limits assumed): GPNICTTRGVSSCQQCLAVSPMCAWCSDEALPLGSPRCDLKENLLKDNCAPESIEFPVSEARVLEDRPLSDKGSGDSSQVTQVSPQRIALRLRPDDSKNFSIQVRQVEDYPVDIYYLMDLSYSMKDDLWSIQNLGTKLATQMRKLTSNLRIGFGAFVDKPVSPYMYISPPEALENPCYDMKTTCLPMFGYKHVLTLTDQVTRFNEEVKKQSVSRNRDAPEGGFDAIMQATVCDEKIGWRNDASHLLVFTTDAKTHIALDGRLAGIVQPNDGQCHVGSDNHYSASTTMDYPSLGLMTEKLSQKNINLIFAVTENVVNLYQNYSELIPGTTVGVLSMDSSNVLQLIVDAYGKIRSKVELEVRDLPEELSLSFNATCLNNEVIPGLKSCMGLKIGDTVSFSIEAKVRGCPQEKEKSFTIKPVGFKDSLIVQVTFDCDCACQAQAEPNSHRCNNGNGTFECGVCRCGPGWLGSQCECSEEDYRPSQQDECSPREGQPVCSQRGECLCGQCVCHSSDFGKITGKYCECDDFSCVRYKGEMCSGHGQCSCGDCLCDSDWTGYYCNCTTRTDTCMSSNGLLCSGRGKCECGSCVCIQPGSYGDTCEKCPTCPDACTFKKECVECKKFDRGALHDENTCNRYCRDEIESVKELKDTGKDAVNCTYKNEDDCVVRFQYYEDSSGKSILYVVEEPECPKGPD

integrin αvβ1 = integrin αvβ1 (Homo sapiens, UniProt P05556+P06756); assay: ELISA competition assay, integrin αvβ1; assay type: binding
integrin αvβ5 = integrin αvβ5 (Homo sapiens, UniProt P06756+P18084); assay: ELISA competition assay, integrin αvβ5; assay type: binding
integrin α8β1 = integrin α8β1 (Homo sapiens, UniProt P05556+P53708); assay: ELISA competition assay, integrin α8β1; assay type: binding
[4] = αvβ6 IC50, ELISA competition vs LAP, mean, n ≥ 3

pIC50 (integrin αvβ6 [2])	Compound	pIC50 (integrin αvβ3)	pIC50 (integrin αvβ8)	improvement in potency (IC50) for αvβ6/8 relative to parent lassotide [1]	pIC50 (Mouse αvβ6)	pIC50 (integrin αvβ6 [2]; [4])	also measured
7.08	CC[C@H](C)[C@H](NC(=O)[C@H](CC(C)C)NC(=O)[C@H](CC(=O)O)NC(=O)CNC(=O)[C@H](CCCNC(=N)N)NC(=O)[C@@H](NC(=O)[C@H](Cc1ccccc1)NC(=O)[C@H](Cc1ccc(O)cc1)NC(=O)[C@@H]1CCC(=O)NCC(=O)NCC(=O)N[C@@H](C)C(=O)NCC(=O)N[C@@H](Cc2c[nH]cn2)C(=O)N[C@@H](C(C)C)C(=O)N2CCC[C@H]2C(=O)N1)C(C)C)C(=O)N[C@@H](CO)C(=O)N[C@@H](Cc1ccccc1)C(=O)N[C@@H](Cc1ccc(O)cc1)C(=O)NCC(=O)O [lassotide 14] (GGAGHVPEYFVRGDLISFYG-OH; lactam N-8; C-terminus assumed)	6.62	6.94				selectivity favoring αvβ6/8 over αvβ3 ([1]; from IC50 values): 2-3 fold
8.22	CC(C)C[C@H](NC(=O)[C@H](CC(=O)O)NC(=O)CNC(=O)[C@H](CCCNC(=N)N)NC(=O)[C@@H](NC(=O)[C@H](Cc1ccccc1)NC(=O)[C@H](Cc1ccc(O)cc1)NC(=O)[C@@H]1CCC(=O)NCC(=O)NCC(=O)N[C@@H](C)C(=O)NCC(=O)N[C@@H](Cc2c[nH]cn2)C(=O)N[C@@H](C(C)C)C(=O)N2CCC[C@H]2C(=O)N1)C(C)C)C(=O)N[C@@H](CCC(N)=O)C(=O)N[C@@H](CO)C(=O)N[C@@H](Cc1ccccc1)C(=O)N[C@@H](Cc1ccc(O)cc1)C(=O)NCC(=O)O [lassotide 24] (GGAGHVPEYFVRGDLQSFYG-OH; lactam N-8; C-terminus assumed)			up to 7 fold	8.15		pIC50 (integrin αvβ6 [3]): 7.89
	CC[C@H](C)[C@H](NC(=O)[C@H](CC(C)C)NC(=O)[C@H](CC(=O)O)NC(=O)CNC(=O)[C@H](CCCNC(=N)N)NC(=O)[C@@H](NC(=O)[C@H](Cc1ccccc1)NC(=O)[C@H](Cc1ccc(O)cc1)NC(=O)[C@@H]1CCC(=O)NCC(=O)NCC(=O)N[C@@H](CCCNC(=N)N)C(=O)NCC(=O)N[C@@H](Cc2c[nH]cn2)C(=O)N[C@@H](C(C)C)C(=O)N2CCC[C@H]2C(=O)N1)C(C)C)C(=O)N[C@@H](CO)C(=O)N[C@@H](Cc1ccccc1)C(=O)N[C@@H](Cc1ccc(O)cc1)C(=O)NCC(=O)O [lassotide 30] (GGRGHVPEYFVRGDLISFYG-OH; lactam N-8; C-terminus assumed)		7.57	3-4 fold	7.62	7.52	pIC50 (integrin αvβ6 [2]; Human αvß6 IC50, ELISA run in triplicate, mean, Table S1): 7.77
	CC[C@H](C)[C@H](NC(=O)[C@H](CC(C)C)NC(=O)[C@H](CC(=O)O)NC(=O)CNC(=O)[C@H](CCCNC(=N)N)NC(=O)[C@@H](NC(=O)[C@H](Cc1ccccc1)NC(=O)[C@H](Cc1ccc(O)cc1)NC(=O)[C@@H]1CCC(=O)NCC(=O)NCC(=O)N[C@@H](CCCCN)C(=O)NCC(=O)N[C@@H](Cc2c[nH]cn2)C(=O)N[C@@H](C(C)C)C(=O)N2CCC[C@H]2C(=O)N1)C(C)C)C(=O)N[C@@H](CO)C(=O)N[C@@H](Cc1ccccc1)C(=O)N[C@@H](Cc1ccc(O)cc1)C(=O)N[C@@H](CCCCN)C(=O)O [lassotide 35] (GGKGHVPEYFVRGDLISFYK-OH; lactam N-8; C-terminus assumed)		7.44	up to 2 fold		7.60	
	CC(C)C[C@H](NC(=O)[C@H](CC(=O)O)NC(=O)CNC(=O)[C@H](CCCNC(=N)N)NC(=O)[C@@H](NC(=O)[C@H](Cc1ccccc1)NC(=O)[C@H](Cc1ccc(O)cc1)NC(=O)[C@@H]1CCC(=O)NCC(=O)NCC(=O)N[C@@H](CCCNC(=N)N)C(=O)NCC(=O)N[C@@H](Cc2c[nH]cn2)C(=O)N[C@@H](C(C)C)C(=O)N2CCC[C@H]2C(=O)N1)C(C)C)C(=O)N[C@@H](CCC(N)=O)C(=O)N[C@@H](CO)C(=O)N[C@@H](Cc1ccccc1)C(=O)N[C@@H](Cc1ccc(O)cc1)C(=O)NCC(=O)O [lassotide 38] (GGRGHVPEYFVRGDLQSFYG-OH; lactam N-8)	6.73			8.40	8.52	pIC50 (integrin α5β1): 6.40; pIC50 (integrin αIIbβ3): 6.90; pIC50 (integrin αvβ1): 7.89; pIC50 (integrin αvβ5): < 5.00; pIC50 (integrin α8β1): 5.89
